Laboratory results as given in ChEMBL document CHEMBL1146107, “Investigation of mechanism-based thrombin inhibitors: Implications of a highly conserved water molecule for the binding of coumarins within the S pocket” (Bioorg Med Chem Lett, 2006).

Target: Prothrombin (Homo sapiens, UniProt P00734)
Experiment: Inhibition of thrombin

IC50 [µM]	SMILES
48	Nc1ccc(OC(=O)c2cc3cc(CCl)ccc3oc2=O)cc1
> 300	N=C(N)Nc1cccc(OC(=O)c2cc3cc(CCl)ccc3oc2=O)c1
> 300	O=C(OC1CCNCC1)c1cc2cc(CCl)ccc2oc1=O
0.87	O=C(Oc1cccc(Cl)n1)c1cc2cc(CCl)ccc2oc1=O
107	N=C(N)NCCOC(=O)c1cc2cc(CCl)ccc2oc1=O
1.98	Nc1cccc(OC(=O)c2cc3cc(CCl)ccc3oc2=O)c1
> 300	O=C(Oc1cncc(Cl)c1)c1cc2cc(CCl)ccc2oc1=O
> 300	NC1CCC(OC(=O)c2cc3cc(CCl)ccc3oc2=O)CC1 (stereo not drawn)
> 300	NCCCOC(=O)c1cc2cc(CCl)ccc2oc1=O
1.39	Cc1cccc(OC(=O)c2cc3cc(CCl)ccc3oc2=O)n1
284	NCCOC(=O)c1cc2cc(CCl)ccc2oc1=O
> 300	NC(N)=NCCCOC(=O)c1cc2cc(CCl)ccc2oc1=O
151	N=C(N)Nc1ccc(OC(=O)c2cc3cc(CCl)ccc3oc2=O)cc1
